Assay results reported in patent US5614533A, “Substituted pipecolinic acid derivatives as HIV protease inhibitors” (Bio-Mega/Boehringer Ingelheim Research, Inc., priority 1994, dated 1997).

Assays:
HIV protease = biological target: T1, HIV protease (Human immunodeficiency virus type 1 group M subtype B, UniProt P04585); assay: Recombinant HIV Protease HPLC Assay; assay type: biochemical; details: 37°, 30 min, pH 5.5
T1 construct: HIV protease was expressed in E. coli; made in house; host or cells: E. coli (plasmid pBRT1 prt+)
Summary of the method: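 Recombinant protease from E. coli (pBRT1 prt+ construct), purified and diluted 1/38 for use, cleaves the decapeptide substrate VSFNFPQITL-NH2, containing an HIV polyprotein cleavage site. Inhibition of cleavage is monitored by HPLC.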

[1] = tested on: HIV (H9/HTLV-IIIB) in C8166 cells; assay: plaque assay: inhibition of syncytia formation in HIV-infected C8166 cells; assay type: cell-based; details: Human immunodeficiency virus 1, IIIB, 72 h, 50% inhibition of syncytia formation
Summary of the method: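 C8166 cells (5×10^4/well) infected with 50× TCID50 H9/HTLV-IIIB in HEPES-buffered RPMI 1640 (pH 7.2), 10% FCS, with test compound in triplicate; 72 h at 37°, 5% CO2. Syncytia centers counted by phase-contrast microscopy; EC50 from percent inhibition versus serial dilutions by non-linear regression.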

Compound	IC50 (HIV protease; Table V)	EC50 ([1]; Table V)	IC50 (HIV protease; Table IV)	EC50 ([1]; Table IV)	further results
CC(C)(C)NC(=O)[C@@H]1C[C@H](Sc2ccncc2)CCN1C[C@@H](O)[C@H](Cc1ccccc1)NC(=O)c1cc(Cl)ccc1Cl [Table VII, entry 7, N-tert-butyl-1-{3(S)-{{(2,5-dichlorophenyl)carbonyl}amino}-2(R)-hydroxy-4-phenylbutyl}-4(R)-(4-pyridinylthio)piperidine-2(S)-carboxamide]					IC50 (HIV protease; Table VII): 9.8 nM; EC50 ([1]; Table VII): 360 nM
CC(C)[C@H](NC(=O)OCc1ccccc1)C(=O)N[C@@H](Cc1ccccc1)[C@H](O)CN1CC[C@@H](SCc2ccccc2)C[C@H]1C(=O)NC(C)(C)C [Table IV, entry 37, N-tert-butyl-1-{3(S)-{{N-(benzyloxycarbonyl)valyl}amino}-2(R)-hydroxy-4-phenylbutyl}-4(R)-(benzylthio)piperidine-2(S)-carboxamide]			2.3 nM	7 nM	
CC(C)[C@H](NC(=O)OCc1ccccc1)C(=O)N[C@@H](Cc1ccccc1)[C@H](O)CN1CC[C@@H](Oc2ccccc2)C[C@H]1C(=O)NC(C)(C)C [Table IV, entry 16]			2.7 nM	150 nM	
Cc1cc(C)nc(S[C@@H]2CCN(C[C@@H](O)[C@H](Cc3ccccc3)NC(=O)[C@@H](NC(=O)OCc3ccccc3)C(C)C)[C@H](C(=O)NC(C)(C)C)C2)n1 [Table IV, entry 36, N-tert-butyl-1-{3(S)-{{N-(benzyloxycarbonyl)valy}amino}-2(R)-hydroxy-4-phenylbutyl}-4(R)-(4,6-dimethyl-2-pyrimidinylthio)piperidine-2(S)-carboxamide]			3 nM	9 nM	
C[C@@H](O)[C@H](NC(=O)c1ccc2ccccc2n1)C(=O)N[C@@H](Cc1ccccc1)[C@H](O)CN1CC[C@@H](S(=O)(=O)c2ccccc2)C[C@H]1C(=O)NC(C)(C)C [Table VI, entry 6, N-tert-butyl-1-{2(R)-hydroxy-4-phenyl-3(S)-{{N-(2-quinolylinylcarbonyl)threonyl}amino}butyl}-4(R)-(phenylsulfonyl)piperidine-2(S)-carboxamide]					IC50 (HIV protease; Table VI): 2.6 nM; EC50 ([1]; Table VI): 61 nM
CC(C)(C)NC(=O)[C@@H]1C[C@H](S(=O)(=O)c2ccncc2)CCN1C[C@@H](O)[C@H](Cc1ccccc1)NC(=O)[C@@H](NC(=O)c1ccc2ccccc2n1)C(C)(C)C [Table VI, entry 7, N-tert-butyl-1-{2(R)-hydroxy-4-phenyl-3(S)-{{N-(2-quinolylinylcarbonyl)tert-butylglycyl}amino}butyl}-4(R)-(4-pyridinylsulfonyl)piperidine-2(S)-carboxamide]					IC50 (HIV protease; Table VI): 2.1 nM; EC50 ([1]; Table VI): 29 nM
CC(C)(C)NC(=O)[C@@H]1C[C@H](S(=O)(=O)c2ccccc2)CCN1C[C@@H](O)[C@H](Cc1ccccc1)NC(=O)OCc1ccccc1 [Table IV, entry 4, N-tert-butyl-1-{3(S)-(benzyloxycarbonylamino)-2(R)-hydroxy-4-phenylbutyl}-4(R)-(phenylsulfonyl)piperidine-2(S)-carboxamide]			30 nM	1400 nM	
Cc1cccc(C)c1OCC(=O)N[C@@H](Cc1ccccc1)[C@H](O)CN1CC[C@@H](Sc2ccncc2)C[C@H]1C(=O)NC(C)(C)C [Table VII, entry 4, N-tert-butyl-1-{3(S)-{{(2,6-dimethylphenoxy)acetyl}amino}-2(R)-hydroxy-4-phenylbutyl}-4(R)-(4-pyridinylthio)piperidine-2(S)-carboxamide]					IC50 (HIV protease; Table VII): 3.1 nM; EC50 ([1]; Table VII): 20 nM
CC(C)(C)NC(=O)[C@@H]1C[C@H](Sc2ccncc2)CCN1C[C@@H](O)[C@H](Cc1ccccc1)NC(=O)c1ccc(Cl)cc1Cl [Table VII, entry 6, N-tert-butyl-1-{3(S)-{{(2,4-dichlorophenyl)carbonyl}amino}-2(R)-hydroxy-4-phenylbutyl}-4(R)-(4-pyridinylthio)piperidine-2(S)-carboxamide]					IC50 (HIV protease; Table VII): 5.4 nM; EC50 ([1]; Table VII): 340 nM
CC[C@H](C)[C@H](NC(=O)OCc1ccccc1)C(=O)N[C@@H](Cc1ccccc1)[C@H](O)CN1CC[C@@H](c2ccccc2)C[C@H]1C(=O)NC(C)(C)C [Table IV, entry 11, N-tert-butyl-1-{3(S)-{{N-(benzyloxycarbonyl)isoleucyl}amino}-2(R)-hydroxy-4-phenylbutyl}-4(R)-phenylpiperidine-2(S)-carboxamide]			3.7 nM	700 nM	
Cc1ccccc1OCC(=O)N[C@@H](Cc1ccccc1)[C@H](O)CN1CC[C@@H](Sc2ccncc2)C[C@H]1C(=O)NC(C)(C)C [Table VII, entry 5, N-tert-butyl-1-{3(S)-{{(2-methylphenoxy)acetyl}amino}-2(R)-hydroxy-4-phenylbutyl}-4(R)-(4-pyridinylthio)piperidine-2(S)-carboxamide]					IC50 (HIV protease; Table VII): 6.2 nM; EC50 ([1]; Table VII): 140 nM

Continued, in another order:

IC50 (HIV protease; Table V)	EC50 ([1]; Table V)	IC50 (HIV protease; Table IV)	EC50 ([1]; Table IV)	Compound	further results
4.2 nM	22 nM			CC(C)[C@H](NC(=O)c1ccc2ccccc2n1)C(=O)N[C@@H](Cc1ccccc1)[C@H](O)CN1CC[C@@H](OCc2ccncc2)C[C@H]1C(=O)NC(C)(C)C [Table V, entry 16, N-tert-butyl-1-{2(S)(R)-hydroxy-4-phenyl-3(S)-{{N-(2-quinolylinylcarbonyl)valyl}amino}butyl}-4(R)-(4-pyridinylmethoxy)piperidine-2-carboxamide]	
1.8 nM	67 nM			CC(C)[C@H](NC(=O)c1ccc2ccccc2n1)C(=O)N[C@@H](Cc1ccccc1)[C@H](O)CN1CC[C@@H](S(=O)(=O)Cc2cccnc2)C[C@H]1C(=O)NC(C)(C)C [Table V, entry 18, N-tert-butyl-1-{2(S)(R)-hydroxy-4-phenyl-3(S)-{{N-(2-quinolylinylcarbonyl)valyl}amino}butyl}-4(R)-{(3-pyridinylmethyl)sulfonyl}piperidine-2-carboxamide]	
4.2 nM	5 nM			CC(C)[C@H](NC(=O)c1ccc2ccccc2n1)C(=O)N[C@@H](Cc1ccccc1)[C@H](O)CN1CC[C@@H](SCc2ccccn2)C[C@H]1C(=O)NC(C)(C)C [Table V, entry 9, N-tert-butyl-1-{2(S)(R)-hydroxy-4-phenyl-3(S)-{{N-(2-quinolylinylcarbonyl)valyl}amino}butyl}-4(R)-{(2-pyridinylmethyl)thio}piperidine-2-carboxamide]	
2.6 nM	22 nM			CC(C)[C@H](NC(=O)c1ccc2ccccc2n1)C(=O)N[C@@H](Cc1ccccc1)[C@H](O)CN1CC[C@@H](Oc2ccc(F)cc2)C[C@H]1C(=O)NC(C)(C)C [Table V, entry 15, N-tert-butyl-1-{2(S)(R)-hydroxy-4-phenyl-3(S)-{{N-(2-quinolylinylcarbonyl)valyl}amino}butyl}-4(R)-{(4-fluorophenyl)oxy}piperidine-2-carboxamide]	
3.2 nM	25 nM			CC(C)[C@H](NC(=O)c1ccc2ccccc2n1)C(=O)N[C@@H](Cc1ccccc1)[C@H](O)CN1CC[C@@H](Oc2ncccn2)C[C@H]1C(=O)NC(C)(C)C [Table V, entry 10, N-tert-butyl-1-{2(S)(R)-hydroxy-4-phenyl-3(S)-{{N-(2-quinolylinylcarbonyl)valyl}amino}butyl}-4(R)-(2-pyrimidinyloxy)piperidine-2-carboxamide]	
		3.1 nM	12 nM	CC(C)[C@H](NC(=O)c1ccc2ccccc2n1)C(=O)N[C@@H](Cc1ccccc1)[C@H](O)CN1CC[C@@H](Sc2ccccc2)C[C@H]1C(=O)NC(C)(C)C [Table IV, entry 20, N-tert-butyl-1-{2(R)-hydroxy-4-phenyl-3(S)-{(N-(2-quinolinylcarbonyl)valyl}amino}butyl}-4(R)-(phenylthio)piperidine-2(S)-carboxamide]	
		5.4 nM	15 nM	CC(C)(C)NC(=O)[C@@H]1C[C@H](Oc2ccccc2)CCN1C[C@@H](O)[C@H](Cc1ccccc1)NC(=O)[C@H](CC(N)=O)NC(=O)c1ccc2ccccc2n1 [Table IV, entry 21, N-tert-butyl-1-{2(R)-hydroxy-4-phenyl-3(S)-{{N-(2-quinolinylcarbonyl)asparaginyl}amino}butyl}-4(R)-phenoxypiperidine-2(S)-carboxamide]	
4.5 nM	44 nM			Cc1ccnc(O[C@@H]2CCN(C[C@@H](O)[C@H](Cc3ccccc3)NC(=O)[C@@H](NC(=O)c3ccc4ccccc4n3)C(C)C)[C@H](C(=O)NC(C)(C)C)C2)n1 [Table V, entry 12, N-tert-butyl-1-{2(S)(R)-hydroxy-4-phenyl-3(S)-{{N-(2-quinolylinylcarbonyl)valyl}amino}butyl}-4(R)-{(4-methyl-2-pyrimidinyl)oxy}piperidine-2-carboxamide]	
2.7 nM	8 nM			Cc1cc(C)nc(S[C@@H]2CCN(C[C@@H](O)[C@H](Cc3ccccc3)NC(=O)[C@@H](NC(=O)c3ccc4ccccc4n3)C(C)C)[C@H](C(=O)NC(C)(C)C)C2)n1 [Table V, entry 4, N-tert-butyl-1-{2(R)-hydroxy-4-phenyl-3(S)-{{N-(2-quinolylinylcarbonyl)valyl}amino}butyl}-4(R)-{(4,6-dimethyl-2-pyrimidinyl)thio}piperidine-2-carboxamide]	
3.7 nM	53 nM			CC(C)[C@H](NC(=O)c1ccc2ccccc2n1)C(=O)N[C@@H](Cc1ccccc1)[C@H](O)CN1CC[C@@H](OCc2cccnc2)C[C@H]1C(=O)NC(C)(C)C [Table V, entry 24, N-tert-butyl-1-{2(R)-hydroxy-4-phenyl-3(S)-{{N-(2-quinolylinylcarbonyl)valyl}amino}butyl}-4(R)-(3-pyridinylmethoxy)piperidine-2(S)-carboxamide]	
